From PubChem BioAssay AID2060910 (Molecular Pharmacology Branch, DTP, NCI, 2025)

System: 242566-281-R-J2-PDC complex spheroid viability
Assay: Anticancer human tumor 242566-281-R-J2-PDC patient-derived pancreatic carcinoma cell line growth inhibition [RAS]
Settings: for viability, T/C: stronger effect = lower value
In short: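 Agents were tested in combination matrices in half-log decrements from a top concentration at or near clinical Cmax (10 microM if undetermined). Targets were multi-cell spheroids of tumour lines plus HUVEC and MSC stromal cells.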

[1] = curve of first compound, second compound 0.000949 µM
[2] = curve of first compound, second compound 0.003 µM
[3] = curve of first compound, second compound 0.00949 µM
[4] = curve of first compound, second compound 0.03 µM
[5] = curve of first compound, second compound 0.0949 µM
[6] = curve of first compound, second compound 0.3 µM
[7] = second compound 0.000949 µM, first compound 0.00316 µM
[8] = second compound 0.000949 µM, first compound 0.01 µM
[9] = second compound 0.000949 µM, first compound 0.0316 µM
[10] = second compound 0.000949 µM, first compound 0.1 µM
[11] = second compound 0.000949 µM, first compound 0.316 µM
[12] = second compound 0.000949 µM, first compound 1 µM
[13] = second compound 0.003 µM, first compound 0.00316 µM
[14] = second compound 0.003 µM, first compound 0.01 µM
[15] = second compound 0.003 µM, first compound 0.0316 µM
[16] = second compound 0.003 µM, first compound 0.1 µM
[17] = second compound 0.003 µM, first compound 0.316 µM
[18] = second compound 0.003 µM, first compound 1 µM
[19] = second compound 0.00949 µM, first compound 0.00316 µM
[20] = second compound 0.00949 µM, first compound 0.01 µM
[21] = second compound 0.00949 µM, first compound 0.0316 µM
[22] = second compound 0.00949 µM, first compound 0.1 µM
[23] = second compound 0.00949 µM, first compound 0.316 µM
[24] = second compound 0.00949 µM, first compound 1 µM
[25] = second compound 0.03 µM, first compound 0.00316 µM
[26] = second compound 0.03 µM, first compound 0.01 µM
[27] = second compound 0.03 µM, first compound 0.0316 µM
[28] = second compound 0.03 µM, first compound 0.1 µM
[29] = second compound 0.03 µM, first compound 0.316 µM
[30] = second compound 0.03 µM, first compound 1 µM
[31] = second compound 0.0949 µM, first compound 0.00316 µM
[32] = second compound 0.0949 µM, first compound 0.01 µM
[33] = second compound 0.0949 µM, first compound 0.0316 µM
[34] = second compound 0.0949 µM, first compound 0.1 µM
[35] = second compound 0.0949 µM, first compound 0.316 µM
[36] = second compound 0.0949 µM, first compound 1 µM
[37] = second compound 0.3 µM, first compound 0.00316 µM
[38] = second compound 0.3 µM, first compound 0.01 µM
[39] = second compound 0.3 µM, first compound 0.0316 µM
[40] = second compound 0.3 µM, first compound 0.1 µM
[41] = second compound 0.3 µM, first compound 0.316 µM
[42] = second compound 0.3 µM, first compound 1 µM
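Note: spheroids exposed to compound for 7 days before readout.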
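Throughout, for viability, T/C: 100% = DMSO vehicle control wells.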

## O=C(c1ccc(F)c(F)c1Nc1ccc(I)cc1F)N1CC(O)([C@@H]2CCCCN2)C1 + CCn1c(-c2cc(N3CCN(C)CC3)cnc2C(C)OC)c2c3cc(ccc31)-c1csc(n1)CC(NC(=O)C1CC1C)C(=O)N1CCCC(N1)C(=O)OCC(C)(C)C2
[1]
  IC50: 35.4 nM
[2]
  IC50: 12.2 nM
[3]
  IC50: < 3.16 nM
[4]
  IC50: < 3.16 nM
[5]
  IC50: < 3.16 nM
[6]
  IC50: < 3.16 nM
[7]
  viability, T/C: 89.8%
[8]
  viability, T/C: 71.1%
[9]
  viability, T/C: 44.3%
[10]
  viability, T/C: 42.3%
[11]
  viability, T/C: 29%
[12]
  viability, T/C: 16.6%
[13]
  viability, T/C: 72.4%
[14]
  viability, T/C: 47.5%
[15]
  viability, T/C: 39.8%
[16]
  viability, T/C: 32.4%
[17]
  viability, T/C: 23.1%
[18]
  viability, T/C: 15.4%
[19]
  viability, T/C: 39.9%
[20]
  viability, T/C: 30.8%
[21]
  viability, T/C: 30.6%
[22]
  viability, T/C: 21.9%
[23]
  viability, T/C: 15.2%
[24]
  viability, T/C: 16.2%
[25]
  viability, T/C: 24.9%
[26]
  viability, T/C: 21.4%
[27]
  viability, T/C: 19.8%
[28]
  viability, T/C: 18%
[29]
  viability, T/C: 14.5%
[30]
  viability, T/C: 14%
[31]
  viability, T/C: 21.9%
[32]
  viability, T/C: 17.8%
[33]
  viability, T/C: 17.6%
[34]
  viability, T/C: 14.1%
[35]
  viability, T/C: 11.2%
[36]
  viability, T/C: 12.3%
[37]
  viability, T/C: 17.4%
[38]
  viability, T/C: 16.4%
[39]
  viability, T/C: 13.3%
[40]
  viability, T/C: 14.1%
[41]
  viability, T/C: 10.9%
[42]
  viability, T/C: 11.3%

## CC(C)NCC(C(=O)N1CCN(c2ncnc3c2C(C)CC3O)CC1)c1ccc(Cl)cc1 (stereo not drawn) + CCn1c(-c2cccnc2C(C)OC)c2c3cc(ccc31)N1CCOC(CC(NC(=O)C(C(C)C)N(C)C(=O)C3(F)CCN(C(=O)C#CC(C)(C)N(C)C)CC3)C(=O)N3CCCC(N3)C(=O)OCC(C)(C)C2)C1
[1]
  IC50: > 10000 nM
[2]
  IC50: > 10000 nM
[3]
  IC50: > 10000 nM
[4]
  IC50: > 10000 nM
[5]
  IC50: > 10000 nM
[6]
  IC50: > 10000 nM
[9]
  viability, T/C: 92%
[10]
  viability, T/C: 98.4%
[11]
  viability, T/C: 84.9%
[12]
  viability, T/C: 92.2%
Second compound 0.000949 µM, first compound 3.16 µM
  viability, T/C: 96.8%
Second compound 0.000949 µM, first compound 10 µM
  viability, T/C: 56.7%
[15]
  viability, T/C: 111%
[16]
  viability, T/C: 73.6%
[17]
  viability, T/C: 95.2%
[18]
  viability, T/C: 81.6%
Second compound 0.003 µM, first compound 3.16 µM
  viability, T/C: 84.9%
Second compound 0.003 µM, first compound 10 µM
  viability, T/C: 55.5%
[21]
  viability, T/C: 109%
[22]
  viability, T/C: 70.8%
[23]
  viability, T/C: 97.5%
[24]
  viability, T/C: 79.2%
Second compound 0.00949 µM, first compound 3.16 µM
  viability, T/C: 74.1%
Second compound 0.00949 µM, first compound 10 µM
  viability, T/C: 56.4%
[27]
  viability, T/C: 96%
[28]
  viability, T/C: 91.2%
[29]
  viability, T/C: 93.6%
[30]
  viability, T/C: 79.2%
Second compound 0.03 µM, first compound 3.16 µM
  viability, T/C: 69.8%
Second compound 0.03 µM, first compound 10 µM
  viability, T/C: 72.7%
[33]
  viability, T/C: 88.9%
[34]
  viability, T/C: 87.5%
[35]
  viability, T/C: 104%
[36]
  viability, T/C: 97.7%
Second compound 0.0949 µM, first compound 3.16 µM
  viability, T/C: 65.9%
Second compound 0.0949 µM, first compound 10 µM
  viability, T/C: 59.9%
[39]
  viability, T/C: 85.8%
[40]
  viability, T/C: 88.7%
[41]
  viability, T/C: 85.4%
[42]
  viability, T/C: 74%
Second compound 0.3 µM, first compound 3.16 µM
  viability, T/C: 62.3%
Second compound 0.3 µM, first compound 10 µM
  viability, T/C: 52.3%

## CCn1c(-c2cccnc2C(C)OC)c2c3cc(ccc31)N1CCOC(CC(NC(=O)C(C(C)C)N(C)C(=O)C3(F)CCN(C(=O)C#CC(C)(C)N(C)C)CC3)C(=O)N3CCCC(N3)C(=O)OCC(C)(C)C2)C1 (stereo not drawn)
Compound 0.000949 µM
  viability, T/C: 93.4% [middle of 8 runs]
Compound 0.003 µM
  viability, T/C: 108% [middle of 8 runs]
Compound 0.00949 µM
  viability, T/C: 104% [middle of 8 runs]
Compound 0.03 µM
  viability, T/C: 109% [middle of 8 runs]
Compound 0.0949 µM
  viability, T/C: 98.3% [middle of 8 runs]
Compound 0.3 µM
  viability, T/C: 87.6% [middle of 8 runs]
Compound alone, run of 07/09/2024
  IC50: > 300 nM

## C=CC(=O)N1CCN(c2nc(OCC3CCCN3C)nc3c(F)c(-c4nc(N)cc(C)c4C(F)(F)F)c(Cl)cc23)C(C)C1 (stereo not drawn) + CCn1c(-c2cc(N3CCN(C)CC3)cnc2C(C)OC)c2c3cc(ccc31)-c1csc(n1)CC(NC(=O)C1CC1C)C(=O)N1CCCC(N1)C(=O)OCC(C)(C)C2
[1]
  IC50: > 1000 nM
[2]
  IC50: > 1000 nM
[3]
  IC50: < 3.16 nM
[4]
  IC50: < 3.16 nM
[5]
  IC50: < 3.16 nM
[6]
  IC50: < 3.16 nM
[7]
  viability, T/C: 91.5%
[8]
  viability, T/C: 90.3%
[9]
  viability, T/C: 69.8%
[10]
  viability, T/C: 96.7%
[11]
  viability, T/C: 86.9%
[12]
  viability, T/C: 59.6%
[13]
  viability, T/C: 80.6%
[14]
  viability, T/C: 62.2%
[15]
  viability, T/C: 67.8%
[16]
  viability, T/C: 70.5%
[17]
  viability, T/C: 76.5%
[18]
  viability, T/C: 51.7%
[19]
  viability, T/C: 46.6%
[20]
  viability, T/C: 39.8%
[21]
  viability, T/C: 44.3%
[22]
  viability, T/C: 47.3%
[23]
  viability, T/C: 43.1%
[24]
  viability, T/C: 41.3%
[25]
  viability, T/C: 33.7%
[26]
  viability, T/C: 32.1%
[27]
  viability, T/C: 30.3%
[28]
  viability, T/C: 30.5%
[29]
  viability, T/C: 23.8%
[30]
  viability, T/C: 26.9%
[31]
  viability, T/C: 25.1%
[32]
  viability, T/C: 22.6%
[33]
  viability, T/C: 23.1%
[34]
  viability, T/C: 24.5%
[35]
  viability, T/C: 20.1%
[36]
  viability, T/C: 26%
[37]
  viability, T/C: 21.6%
[38]
  viability, T/C: 20.6%
[39]
  viability, T/C: 21.7%
[40]
  viability, T/C: 20.6%
[41]
  viability, T/C: 19.8%
[42]
  viability, T/C: 20.2%
